{"source": "patent US10131652B2", "about": "“Pyrimidinyloxy benzene derivatives as herbicides” (E. I. DU PONT DE NEMOURS AND COMPANY, priority 2014, dated 2018)", "assay_in_all_cases": "Test D pre-/postemergence plant response", "assay_type_in_all_cases": "in vivo", "key": {"[1]": {"test_system": "velvetleaf (Abutilon theophrasti)", "conditions": "Postemergence", "outline": "(§1)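 0 = no effect, 100 = complete control: plants were scored this way by visual comparison with controls 13 to 15 days post-treatment. Application was preemergence to sown loam/sand pots or postemergence to 2–18 cm seedlings in peat-based mix.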"}, "[2]": {"test_system": "blackgrass (Alopecurus myosuroides)", "conditions": "Postemergence; for Plant response rating, Blackgrass: scale 0 to 100, 0 no effect, 100 complete control", "outline": "as §1"}, "[3]": {"test_system": "ragweed (common ragweed, Ambrosia elatior)", "conditions": "Postemergence", "outline": "as §1"}, "[4]": {"test_system": "pigweed (Amaranthus retroflexus)", "conditions": "Postemergence", "outline": "as §1"}, "[5]": {"test_system": "johnsongrass (Sorghum halepense)", "conditions": "Postemergence; for Plant response rating, Johnsongrass: scale 0 to 100, 0 no effect, 100 complete control", "outline": "as §1"}, "[6]": {"test_system": "morningglory (Ipomoea coccinea)", "conditions": "Postemergence", "outline": "as §1"}, "[7]": {"test_system": "large (Lg) crabgrass (Digitaria sanguinalis)", "conditions": "Postemergence; for Plant response rating, Crabgrass, Large: scale 0 to 100, 0 no effect, 100 complete control", "outline": "as §1"}, "[8]": {"test_system": "soybean (Glycine max)", "conditions": "Postemergence", "outline": "as §1"}, "[9]": {"test_system": "oilseed rape (Brassica napus)", "conditions": "Postemergence", "outline": "as §1"}, "[10]": {"test_system": "winter wheat (Triticum aestivum)", "conditions": "Postemergence", "outline": "as §1"}, "[11]": {"test_system": "Italian ryegrass (Lolium multiflorum)", "conditions": "Postemergence", "outline": "as §1"}, "[12]": {"test_system": "yellow nutsedge (Cyperus esculentus)", "conditions": "Postemergence", "outline": "as §1"}, "[13]": {"test_system": "corn (Zea mays)", "conditions": "Postemergence; for Plant response rating, Corn: scale 0 to 100, 0 no effect, 100 complete control", "outline": "as §1"}, "[14]": {"test_system": "barnyardgrass (Echinochloa crus-galli)", "conditions": "Postemergence; for Plant response rating, Barnyardgrass: scale 0 to 100, 0 no effect, 100 complete control", "outline": "as §1"}, "[15]": {"test_system": "lambsquarters (Chenopodium album)", "conditions": "Postemergence", "outline": "as §1"}, "[16]": {"test_system": "giant foxtail (Setaria faberii)", "conditions": "Postemergence; for Plant response rating, Foxtail, Giant: scale 0 to 100, 0 no effect, 100 complete control", "outline": "as §1"}, "[17]": {"test_system": "waterhemp (common waterhemp, Amaranthus rudis)", "conditions": "Postemergence", "outline": "as §1"}, "[18]": {"test_system": "galium (catchweed bedstraw, Galium aparine)", "conditions": "Postemergence; for Plant response rating, Galium: scale 0 to 100, 0 no effect, 100 complete control", "outline": "as §1"}, "[19]": {"conditions": "31 g ai/ha, scale 0 to 100 (0 no effect, 100 complete control)"}, "[20]": {"conditions": "62 g ai/ha, scale 0 to 100, 0 no effect, 100 complete control"}, "[21]": {"conditions": "125 g ai/ha, scale 0 to 100, 0 no effect, 100 complete control"}}}
{"smiles": "Fc1ccc(Oc2ncc(Cl)cn2)c(-c2cc(C(F)(Cl)Cl)on2)c1", "note": "[Compound 221]", "values": [{"measurement": "Plant response rating (scale 0 to 100), Velvetleaf", "setting": "[1]; 16 g ai/ha", "value": 70}, {"measurement": "Velvetleaf plant response rating", "setting": "[1]; [19]", "value": 65}, {"measurement": "Velvetleaf plant response rating", "setting": "[1]; [20]", "value": 80}, {"measurement": "Plant response rating, Velvetleaf", "setting": "[1]; [21]", "value": 100}, {"measurement": "Plant response rating (scale 0 to 100), Blackgrass", "setting": "[2]; 16 g ai/ha", "value": 5}, {"measurement": "Blackgrass plant response rating", "setting": "[2]; [19]", "value": 10}, {"measurement": "Plant response rating, Blackgrass", "setting": "[2]; 62 g ai/ha", "value": 5}, {"measurement": "Plant response rating, Blackgrass", "setting": "[2]; 125 g ai/ha", "value": 40}, {"measurement": "Plant response rating (scale 0 to 100), Ragweed", "setting": "[3]; 16 g ai/ha", "value": 35}, {"measurement": "Ragweed plant response rating", "setting": "[3]; [19]", "value": 50}, {"measurement": "Ragweed plant response rating", "setting": "[3]; [20]", "value": 45}, {"measurement": "Plant response rating, Ragweed", "setting": "[3]; [21]", "value": 75}, {"measurement": "Plant response rating (scale 0 to 100), Pigweed", "setting": "[4]; 16 g ai/ha", "value": 95}, {"measurement": "Pigweed plant response rating", "setting": "[4]; [19]", "value": 95}, {"measurement": "Pigweed plant response rating", "setting": "[4]; [20]", "value": 98}, {"measurement": "Plant response rating, Pigweed", "setting": "[4]; [21]", "value": 100}, {"measurement": "Plant response rating (scale 0 to 100), Johnsongrass", "setting": "[5]; 16 g ai/ha", "value": 0}, {"measurement": "Johnsongrass plant response rating", "setting": "[5]; [19]", "value": 5}, {"measurement": "Plant response rating, Johnsongrass", "setting": "[5]; 62 g ai/ha", "value": 15}, {"measurement": "Plant response rating, Johnsongrass", "setting": "[5]; 125 g ai/ha", "value": 15}, {"measurement": "Plant response rating (scale 0 to 100), Morningglory", "setting": "[6]; 16 g ai/ha", "value": 65}, {"measurement": "Morningglory plant response rating", "setting": "[6]; [19]", "value": 65}, {"measurement": "Morningglory plant response rating", "setting": "[6]; [20]", "value": 80}, {"measurement": "Plant response rating, Morningglory", "setting": "[6]; [21]", "value": 85}, {"measurement": "Plant response rating (scale 0 to 100), Crabgrass, Large", "setting": "[7]; 16 g ai/ha", "value": 10}, {"measurement": "Crabgrass, Large plant response rating", "setting": "[7]; [19]", "value": 10}, {"measurement": "Plant response rating, Crabgrass, Large", "setting": "[7]; 62 g ai/ha", "value": 25}, {"measurement": "Plant response rating, Crabgrass, Large", "setting": "[7]; 125 g ai/ha", "value": 30}, {"measurement": "Plant response rating (scale 0 to 100), Soybean", "setting": "[8]; 16 g ai/ha", "value": 35}, {"measurement": "Soybean plant response rating", "setting": "[8]; [19]", "value": 25}, {"measurement": "Soybean plant response rating", "setting": "[8]; [20]", "value": 85}, {"measurement": "Plant response rating, Soybean", "setting": "[8]; [21]", "value": 90}, {"measurement": "Plant response rating (scale 0 to 100), Oilseed Rape", "setting": "[9]; 16 g ai/ha", "value": 70}, {"measurement": "Oilseed Rape plant response rating", "setting": "[9]; [19]", "value": 70}, {"measurement": "Oilseed Rape plant response rating", "setting": "[9]; [20]", "value": 90}, {"measurement": "Plant response rating, Oilseed Rape", "setting": "[9]; [21]", "value": 90}, {"measurement": "Plant response rating (scale 0 to 100), Wheat", "setting": "[10]; 16 g ai/ha", "value": 0}, {"measurement": "Wheat plant response rating", "setting": "[10]; [19]", "value": 0}, {"measurement": "Wheat plant response rating", "setting": "[10]; [20]", "value": 5}, {"measurement": "Plant response rating, Wheat", "setting": "[10]; [21]", "value": 0}, {"measurement": "Plant response rating (scale 0 to 100), Ryegrass, Italian", "setting": "[11]; 16 g ai/ha", "value": 5}, {"measurement": "Ryegrass, Italian plant response rating", "setting": "[11]; [19]", "value": 5}, {"measurement": "Ryegrass, Italian plant response rating", "setting": "[11]; [20]", "value": 20}, {"measurement": "Plant response rating, Ryegrass, Italian", "setting": "[11]; [21]", "value": 10}, {"measurement": "Plant response rating (scale 0 to 100), Nutsedge, Yellow", "setting": "[12]; 16 g ai/ha", "value": 5}, {"measurement": "Nutsedge, Yellow plant response rating", "setting": "[12]; [19]", "value": 5}, {"measurement": "Nutsedge, Yellow plant response rating", "setting": "[12]; [20]", "value": 5}, {"measurement": "Plant response rating, Nutsedge, Yellow", "setting": "[12]; [21]", "value": 10}, {"measurement": "Plant response rating (scale 0 to 100), Corn", "setting": "[13]; 16 g ai/ha", "value": 0}, {"measurement": "Corn plant response rating", "setting": "[13]; [19]", "value": 0}, {"measurement": "Plant response rating, Corn", "setting": "[13]; 62 g ai/ha", "value": 5}, {"measurement": "Plant response rating, Corn", "setting": "[13]; 125 g ai/ha", "value": 10}, {"measurement": "Plant response rating (scale 0 to 100), Barnyardgrass", "setting": "[14]; 16 g ai/ha", "value": 0}, {"measurement": "Barnyardgrass plant response rating", "setting": "[14]; [19]", "value": 5}, {"measurement": "Plant response rating, Barnyardgrass", "setting": "[14]; 62 g ai/ha", "value": 5}, {"measurement": "Plant response rating, Barnyardgrass", "setting": "[14]; 125 g ai/ha", "value": 10}, {"measurement": "Plant response rating (scale 0 to 100), Lambsquarters", "setting": "[15]; 16 g ai/ha", "value": 85}, {"measurement": "Lambsquarters plant response rating", "setting": "[15]; [19]", "value": 95}, {"measurement": "Lambsquarters plant response rating", "setting": "[15]; [20]", "value": 95}, {"measurement": "Plant response rating, Lambsquarters", "setting": "[15]; [21]", "value": 98}, {"measurement": "Plant response rating (scale 0 to 100), Foxtail, Giant", "setting": "[16]; 16 g ai/ha", "value": 35}, {"measurement": "Foxtail, Giant plant response rating", "setting": "[16]; [19]", "value": 5}, {"measurement": "Plant response rating, Foxtail, Giant", "setting": "[16]; 62 g ai/ha", "value": 5}, {"measurement": "Plant response rating, Foxtail, Giant", "setting": "[16]; 125 g ai/ha", "value": 35}, {"measurement": "Plant response rating (scale 0 to 100), Waterhemp", "setting": "[17]; 16 g ai/ha", "value": 70}, {"measurement": "Waterhemp plant response rating", "setting": "[17]; [19]", "value": 85}, {"measurement": "Waterhemp plant response rating", "setting": "[17]; [20]", "value": 100}, {"measurement": "Plant response rating, Waterhemp", "setting": "[17]; [21]", "value": 100}, {"measurement": "Plant response rating (scale 0 to 100), Galium", "setting": "[18]; 16 g ai/ha", "value": 80}, {"measurement": "Galium plant response rating", "setting": "[18]; [19]", "value": 80}, {"measurement": "Plant response rating, Galium", "setting": "[18]; 62 g ai/ha", "value": 100}, {"measurement": "Plant response rating, Galium", "setting": "[18]; 125 g ai/ha", "value": 100}]}
